As a reminder, the inhibition is how much of the control response was suppressed. A higher inhibition goes with a response far below the control. By Ki is commonly meant the equilibrium dissociation constant of an inhibitor or competing ligand from its target. A lower Ki goes with higher affinity. By bioavailability is commonly meant dose-corrected exposure relative to a reference, in per cent. Low readings indicate little systemic uptake, high ones much systemic uptake. In general, half-life refers to the time needed for the level to fall by half in the phase considered. Lower therefore signals rapid decline. One may read the IC50 as the concentration at which inhibition is half-maximal. One may read the Cmax as the maximum level reached in the sampled fluid or tissue. As usually defined, the inhibition in vivo is how much of the control response was suppressed.

The values below come from ChEMBL document CHEMBL1142999, “Discovery of potent, selective, orally active, nonpeptide inhibitors of human mast cell chymase” (J Med Chem, 2007).

Data set [1] concerns the target T1, Cathepsin G (Homo sapiens) (UniProt P08311).
T1 sequence (whole entry): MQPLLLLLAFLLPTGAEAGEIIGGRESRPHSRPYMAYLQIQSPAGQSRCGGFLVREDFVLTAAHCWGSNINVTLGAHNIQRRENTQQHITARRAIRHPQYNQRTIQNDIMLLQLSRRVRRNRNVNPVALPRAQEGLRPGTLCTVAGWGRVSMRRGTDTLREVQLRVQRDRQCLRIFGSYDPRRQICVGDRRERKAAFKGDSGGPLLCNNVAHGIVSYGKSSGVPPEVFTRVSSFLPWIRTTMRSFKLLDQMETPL
In words: Inhibition of human neutrophil Cat G at 100 uM.

Data set [2] relates to Syrian golden hamster. In words: Antiinflammatory activity against carrageenan-induced paw inflammation in golden Syrian hamster at 10 mg/kg, im. The format is functional, organism-based. The arrangement: dose 10 mg/kg. To be noted: Mesocricetus auratus. Background: In the carrageenan paw model, swelling and tenderness develop within hours.
The target in another data set is T2, Cathepsin G (Homo sapiens, UniProt P08311).
T2 sequence (P08311 whole entry): T1 sequence (whole entry)
In words: Inhibition of human neutrophil Cat G.

Data set [3] can be described thus: Oral bioavailability in rat. To be noted: in vivo. The format is ADME, organism-based.
Data set [4] can be described thus: Half life in orally dosed rat. It counts as ADME, organism-based. The following applies: in vivo, po.
The species entered for data set [5] is Homo sapiens. Kind of data set: Inhibition of human chymotrypsin at 100 uM.
The target in a further data set is Trypsin (Homo sapiens, UniProt P07477+P07478+P35030). Kind of data set: Inhibition of human trypsin. The format is protein assay.
Data set [6] is filed under the species Homo sapiens. Kind of data set: Inhibition of human beta-tryptase at 100 uM.
Data set [7] is filed under the species Homo sapiens. Kind of data set: Inhibition of human alpha-thrombin at 100 uM.
The target in data set [8] is Coagulation factor X (Homo sapiens) (UniProt P00742). Kind of data set: Inhibition of human factor Xa at 100 uM.
The target in data set [9] is T3, Coagulation factor VII (Homo sapiens) (UniProt P08709).
T3 sequence (whole entry): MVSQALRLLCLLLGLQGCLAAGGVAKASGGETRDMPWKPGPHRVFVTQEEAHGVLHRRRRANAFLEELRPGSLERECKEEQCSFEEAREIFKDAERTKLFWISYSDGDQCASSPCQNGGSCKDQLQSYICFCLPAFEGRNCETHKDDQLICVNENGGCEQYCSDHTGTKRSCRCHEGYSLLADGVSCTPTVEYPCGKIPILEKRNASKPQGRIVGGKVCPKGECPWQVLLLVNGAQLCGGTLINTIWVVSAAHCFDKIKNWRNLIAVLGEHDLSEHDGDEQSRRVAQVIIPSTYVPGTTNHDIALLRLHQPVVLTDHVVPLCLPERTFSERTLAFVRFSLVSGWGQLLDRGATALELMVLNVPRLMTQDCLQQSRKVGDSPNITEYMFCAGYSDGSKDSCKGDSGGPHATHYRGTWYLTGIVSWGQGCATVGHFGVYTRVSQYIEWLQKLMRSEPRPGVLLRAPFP
In words: Inhibition of human factor VIIa at 100 uM.

The target in data set [10] is T4, Neutrophil elastase (Homo sapiens) (UniProt P08246).
T4 sequence (whole entry): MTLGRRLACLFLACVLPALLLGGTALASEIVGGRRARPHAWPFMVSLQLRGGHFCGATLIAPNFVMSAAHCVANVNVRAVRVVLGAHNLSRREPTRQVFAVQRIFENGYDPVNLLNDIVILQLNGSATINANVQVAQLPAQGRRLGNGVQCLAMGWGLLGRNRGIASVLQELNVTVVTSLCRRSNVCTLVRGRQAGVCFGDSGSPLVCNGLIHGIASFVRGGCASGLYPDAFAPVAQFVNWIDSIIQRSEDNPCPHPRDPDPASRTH
Kind of data set: Inhibition of human leukocyte elastase at 100 uM.

The target in another data set is T5, Chymase (Homo sapiens) (UniProt P23946).
T5 sequence (whole entry): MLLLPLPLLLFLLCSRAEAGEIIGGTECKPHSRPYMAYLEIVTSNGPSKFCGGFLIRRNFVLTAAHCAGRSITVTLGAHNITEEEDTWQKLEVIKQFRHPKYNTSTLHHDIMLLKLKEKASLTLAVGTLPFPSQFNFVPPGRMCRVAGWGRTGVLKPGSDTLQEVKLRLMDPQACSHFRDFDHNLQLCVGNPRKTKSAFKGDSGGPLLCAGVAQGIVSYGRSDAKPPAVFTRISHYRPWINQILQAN
Kind of data set: Inhibition of human skin chymase at 10 uM.

The nature of data set [11]: Cmax in rat. It counts as ADME, organism-based. The following applies: in vivo.
The test system of data set [12] is Syrian golden hamster. Kind of data set: Antiinflammatory activity against carrageenan-induced paw inflammation in golden Syrian hamster at 30 mg/kg, po. The format is functional. The following applies: Mesocricetus auratus.

The source made the active and inactive calls. Where only a bound is given, the exact number is not on record here.

Sequence of Coagulation factor X (Homo sapiens) (P00742 41-179 limits assumed): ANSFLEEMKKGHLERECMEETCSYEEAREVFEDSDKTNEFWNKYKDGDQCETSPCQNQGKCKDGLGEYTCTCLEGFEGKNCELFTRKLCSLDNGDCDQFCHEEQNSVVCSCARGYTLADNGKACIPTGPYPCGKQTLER
Sequence of Coagulation factor X (Homo sapiens) (P00742 235-488 limits assumed): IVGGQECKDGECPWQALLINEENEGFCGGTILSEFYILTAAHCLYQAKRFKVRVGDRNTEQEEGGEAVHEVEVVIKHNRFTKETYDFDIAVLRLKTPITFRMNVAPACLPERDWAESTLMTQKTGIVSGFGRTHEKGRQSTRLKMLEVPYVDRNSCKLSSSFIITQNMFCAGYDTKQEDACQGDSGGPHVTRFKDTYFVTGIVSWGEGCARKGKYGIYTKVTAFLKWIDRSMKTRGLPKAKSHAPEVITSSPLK

Take `O=C(Nc1ccc2ccccc2c1)C(c1cccc2ccccc12)P(=O)(O)O` (configuration not stated): the inhibition in data set [1] was found to be 0%.

As to `C[C@@H]1C[C@H]2[C@@H]3CCC4=CC(=O)C=C[C@]4(C)[C@@]3(F)[C@@H](O)C[C@]2(C)[C@@]1(O)C(=O)CO`, in the data set on Syrian golden hamster [2], the result was Active.

`O=C(Nc1ccc2ccccc2c1)C(c1csc2ccc(Cl)cc12)P(=O)(O)O` (configuration not stated) showed a Ki at Cathepsin G of 9.5 µM. The molecule also gave a bioavailability in data set [3] of 3%. In addition, the half-life in data set [4] was 1.8 h. Besides, the inhibition (in the data set listed under Homo sapiens [5]; in the data set filed under Homo sapiens [6]; in the data set filed under Homo sapiens [7]; in [8]; in [9]; in [10]) was less than 50% each time. Moreover, the 50% inhibitory concentration (IC50) against Trypsin worked out at 12 µM.

As to `O=C(Nc1ccc2ccccc2c1)C(n1nnc2ccccc21)P(=O)(O)O` (configuration not stated), the inhibition at Chymase (Homo sapiens) is less than 50%.

In the case of `CP(=O)(O)C(C(=O)N/C=C/c1cc(F)cc(Cl)c1)c1csc2ccc(Cl)cc12` (configuration not stated), in data set [3], the bioavailability worked out at 39%. In addition, in [4], the half-life is 4.5 h. In data set [11], this molecule yielded a Cmax of 6 µM. In the data set with Syrian golden hamster [12], this molecule returned an inhibition in vivo at 30 mg/kg of 50%.
